Measurements as given in JP2016013988A, “エステル化合物” (Mitsubishi Gas Chemical Co Inc, priority 2014, dated 2016).

Test: APHA (colour number) of the purified diester
Format: physicochemical
Conditions: after KOH/water washing, removal of acid under reduced pressure and activated carbon treatment

For `CCCCC(CC)(COCC(C)(C)COC(=O)C(C)(C)C)COC(=O)C(C)(C)C` (stereo not drawn) [実施例1, ジピバリン酸 4−オキサ−2−ブチル−2−エチル−6,6−ジメチルヘプタン−1,7−ジイル], which APHA is on record?
The APHA was 28.

For `CCCC(C)(COCC(C)(C)COC(=O)C(C)(C)C)COC(=O)C(C)(C)C` (stereo not drawn) [実施例2, ジピバリン酸 4−オキサ−2−プロピル−2,6,6−トリメチルヘプタン−1,7−ジイル], which APHA is on record?
Its APHA is 27.

With `CCCCC(CC)C(=O)OCC(C)(C)COCC(C)(CCC)COC(=O)C(CC)CCCC` (stereo not drawn) [実施例4, ビス(2−エチルへキサン酸) 4−オキサ−2−プロピル−2,6,6−トリメチルヘプタン−1,7−ジイル] as the compound, how does the APHA read?
The APHA was 22.
